Results as given in US10857154B2, “Pharmaceutical composition containing keratin 8 phosphorylation inhibitor for preventing or treating macular degeneration, and method for screening macular degeneration medicine” (priority 2016, dated 2020).
Where two headings read alike, the source gives them in different places.

What was measured:
[1] = test system: keratin 8 (K8) phosphorylation; experiment: Western blotting of P-ERK1/2 and P-K8 in paraquat-treated retinal pigment epithelial cells; format: cell-based, human
Procedure: In the bar graph analyzed from the image of western blotting, the expression levels of P-ERK and P-K8 were calculated (FIG. 2B).
In the bar graph analyzed from the image of western blotting, the expression levels of P-ERK and P-K8 were calculated (FIG. 4A).
(§1) The same procedures as in Example 3 were performed, and 10 μM gefitinib was used in lieu of 50 nM trametinib.

[2] = test system: APRE-19 cells and human-tissue-derived RPE cells; experiment: P-K8 immunostaining: reorganization of K8 around the nucleus under paraquat oxidative stress; format: cell-based
Description: The ARPE-19 cells are cell lines that have been genetically engineered for infinite proliferation for experimental use. However, as the human-tissue-derived RPE cells were obtained by culturing RPE tissue isolated from the human eye without any genetic engineering they were used for experiments under conditions similar to those of human RPE.
Thereafter, P-K8 (green fluorescence) of the cells was immunostained (Abcam; ab32579). The nucleus was stained (Invitrogen; T3605) using TOPRO-3 (blue fluorescence) (FIG. 2C).
P-K8 (green fluorescence) of the cells was immunostained (FIG. 4B).
as §1

[3] = test system: APRE-19 cells and human-tissue-derived RPE cells; experiment: E-cadherin / vimentin immunostaining: epithelial-mesenchymal transition under paraquat oxidative stress; format: cell-based; conditions: for E-cadherin expression / vimentin filaments: APRE-19 and human-tissue-derived RPE cells
Procedure: E-cadherin (green fluorescence) and vimentin (red fluorescence) in the cells were immunostained (cell signaling; 7832s). The nucleus was stained using TOPRO-3 (blue fluorescence) (FIG. 3A).
Thereafter, E-cadherin (green fluorescence) and vimentin (red fluorescence) in the cells were immunostained. The nucleus was visualized using TOPRO-3 (blue fluorescence) (FIG. 4C).
as §1

[4] = test system: ARPE-19 cells; experiment: Cell motility using a Transwell insert; format: cell-based, human; conditions: 400 μM paraquat and 20 μM PD98059 for 36 hr, FIG. 3B
Procedure: Also, the cell motility was analyzed using a Transwell insert in ARPE-19 cells selectively treated with 400 μM paraquat and 20 μM PD98059 for 36 hr. As the migrated cells were stained with methylene blue it was confirmed by checking an image (FIG. 3B).

[5] = test system: mouse retinal cells; experiment: NaIO3-induced retinal degeneration in mouse, ZO-1 immunohistochemical analysis; format: in vivo; conditions: 20 mg/kg NaIO3 intravenously, 10 mg/kg PD98059, sacrificed 2 weeks after administration, FIG. 3C
Procedure: 7- to 9-week-old mouse retinal cells were subjected to immunohistochemical analysis (Abcam; ab59720) for a tight junction marker ZO-1 (green fluorescence). A saline-treated group was a control group with intravenous administration of 0.9% NaCl. A mouse group administered intravenously with 20 mg/kg of NaIO3 was selectively treated with 10 mg/kg of PD98059. Animal groups were sacrificed 2 weeks after intravenous administration. The fluorescence images were obtained through a confocal microscope (FIG. 3C).

[6] = APRE-19 cells, 400 μM paraquat 24 hr, then 20 μM PD98059 24 hr, FIG. 2B
[7] = 400 μM paraquat and 20 μM PD98059 for 48 hr, FIG. 3A
[8] = 400 μM paraquat and 10 μM gefitinib for 48 hr, FIG. 5C

Row | SMILES | K8 phosphorylation due to oxidative stress (P-ERK and P-K8 expression levels) [1, 6] | expression of LC3 I/II, the autophagy marker [1, 6] | effect of inhibiting K8 phosphorylation due to oxidative stress (P-K8 expression level) ([1]; APRE-19 cells, 400 μM paraquat 24 hr, then 20 μM PD98059 24 hr, compared to 10 μM SP600125, FIG. 2A) | reorganization of K8 around the nucleus ([2]; APRE-19 and human-tissue-derived RPE cells, 400 μM paraquat and 20 μM PD98059 for 36 hr, FIG. 2C) | epithelial-mesenchymal transition [3, 7] | E-cadherin expression [3, 7] | vimentin filaments [3, 7] | cell motility [4] | degeneration of retinal cells (tight junction marker ZO-1) [5] | K8 phosphorylation due to oxidative stress (P-ERK and P-K8 expression levels) [1] | reorganization of K8 around the nucleus ([2]; APRE-19 cells, 400 μM paraquat and 10 μM gefitinib for 36 hr, FIG. 5B) | epithelial-mesenchymal transition [3, 8] | E-cadherin expression [3, 8] | vimentin filaments [3, 8]
1 | COc1cccc(-c2cc(=O)c3ccccc3o2)c1N [PD98059] | inhibited K8 phosphorylation | not involved in the expression of LC3 I/II | superior | inhibited reorganization of K8 around the nucleus | reduce epithelial-mesenchymal transition | recovered E-cadherin lost | inhibited an increase in vimentin filaments | reduced increased cell motility | restored the degeneration of retinal cells |  |  |  |  | 
2 | COc1cc2ncnc(Nc3ccc(F)c(Cl)c3)c2cc1OCCCN1CCOCC1 [gefitinib] |  |  |  |  |  |  |  |  |  | inhibited phosphorylation of K8 | inhibited reorganization of K8 around the nucleus | reduce epithelial-mesenchymal transition | recovered E-cadherin lost | inhibited the increase in vimentin filaments
